Assay results: paper PMC7881012, “Human ACE2 peptide-mimics block SARS-CoV-2 pulmonary cells infection” (Communications Biology, 2021)
Read-outs that look alike come from different tables or passages of the source. Square brackets hold non-standard residues; d marks the D form. Peptide text beside a SMILES is read from it. hTyr = N[C@@H](CCc1ccc(O)cc1)C(=O)O

Tests used:
[1] = tested on: SARS-CoV-2 clinical isolate SARS-CoV-2/PSL2020 in Calu-3 cells; conditions: clinical isolate /PSL2020 in Calu-3 cells, 48 h
[2] = molecular target: SARS-CoV-2 spike RBD (Fc-tagged 2019-nCoV RBD-SD1) (Severe acute respiratory syndrome coronavirus 2, UniProt P0DTC2); test: biochemical; type: binding; conditions: for kon: read-out: ka, association constant; for koff: read-out: kdis, dissociation constant
[3] = tested on: Vero-E6 cells
[4] = Helical content by circular dichroism; type: physicochemical; conditions: 60 µM peptide, 50 mM sodium phosphate buffer pH 7.4, 25 °C, DichroWeb CDSSTR deconvolution
From the text: The conformation of synthesized peptides in aqueous solution was investigated by circular dichroism (CD) spectroscopy. […] The deconvolution of the CD spectra using DichroWeb[25] allowed us to estimate the helical population for each peptide, which is reported in Table 1. Overall, an excellent agreement was observed between the Agadir-computed values and the experimental helical population inferred from CD data. […] The introduction of a proline residue in peptide P5 has a strong destabilizing effect on helical conformation (17%) whereas Leu/hTyr substitution only led to a slight decrease of the helical content (P7 versus P6 and P10 versus P8).
Fig. 2 Far-UV CD spectra of synthesized peptides. […] CD measurements are reported as molar ellipticity per residue.
CD spectra were recorded on a Jasco J-815 CD spectropolarimeter equipped with a Peltier temperature controller. Data were obtained at 25 °C over a wavelength range between 185 nm and 270 nm, using a wavelength interval of 0.2 nm and a scan rate of 20 nm min^−1. Peptide samples were prepared at a concentration of 60 µM in 50 mM sodium phosphate buffer, pH 7.4, in a quartz cell of 1 mm path length. CD experiments were processed and plotted with R program. CD spectra were analyzed using DICHROWEB web server and CDSSTR deconvolution algorithm.

[5] = tested on: Calu-3 cells; conditions: 10 μM (150 times the IC50); MTT and annexin-V/PI, 24, 48 or 72 h (Fig. 3f)
[6] = tested on: SARS-CoV-2 clinical isolate SARS-CoV-2/PSL2020 in Calu-3 cells; type: cell-based
[7] = tested on: SARS-CoV-2 clinical isolate SARS-CoV-2/PSL2020 in Vero-E6 cells; conditions: for % Inhibition of SARSCoV-2 replication at 10 μM: mean of at least three independent experiments; for % Inhibition, Moyenne / % Inhibition, Q2 (Median): clinical isolate /PSL2020 in Vero-E6 cells, 48 h, 10 µM
[8] = HPLC retention time (LC-MS method B); type: physicochemical; conditions: method B: X-Select CSH C18 XP, 0.1% formic acid water/acetonitrile, 5-100% B in 3.2 min, 1.8 mL min^−1, 40 °C; used as indicator of hydrophobicity
[9] = tested on: Vero-E6 cells; conditions: 10 µM
[10] = tested on: Calu-3 cells
[11] = BLI EXP1, sample conc. ACE2 10 nM, P8 100 nM, P9 and P10 1000 nM
[12] = BLI EXP2, sample conc. ACE2 100 nM, P8 1000 nM, P9 and P10 1111 nM
[13] = BLI EXP3, sample conc. ACE2 100 nM, P9 10000 nM, P10 1000 nM

With CSCC[C@H](NC(=O)[C@H](Cc1ccccc1)NC(=O)[C@H](CCCCN)NC(=O)[C@H](CC(=O)O)NC(=O)[C@H](CC(C)C)NC(=O)[C@H](Cc1ccccc1)NC(=O)[C@@H](NC(=O)[C@H](CCCCN)NC(=O)[C@H](CCc1ccc(O)cc1)NC(=O)[C@H](CCC(N)=O)NC(=O)[C@H](CCC(=O)O)NC(=O)[C@H](CCC(=O)O)NC(=O)[C@H](CC(C)C)NC(=O)[C@H](C)NC(=O)[C@@H](N)CO)[C@@H](C)O)C(=O)N[C@@H](Cc1c[nH]cn1)C(=O)N[C@@H](CCC(=O)O)C(=O)N[C@@H](CC(C)C)C(=O)N[C@@H](CCC(=O)O)C(=O)N[C@@H](CC(=O)O)C(=O)N[C@@H](CC(C)C)C(=O)N[C@@H](CC(C)C)C(=O)N[C@@H](Cc1ccc(O)cc1)C(=O)N[C@@H](CCC(N)=O)C(=O)N[C@@H](CC(C)C)C(=O)N[C@@H](C)C(=O)N[C@@H](CC(C)C)C(N)=O [P10] (H-SALEEQ[hTyr]KTFLDKFMHELEDLLYQLAL-NH2) the IC50 [1] was 0.042 µM, the kon [2, 11] was 2490 M⁻¹ s⁻¹ and the koff [2, 11] was < 1e-07 s⁻¹. The kon [2, 12] was 1410 M⁻¹ s⁻¹, the koff [2, 12] was < 1e-07 s⁻¹ and the kon [2, 13] was 1430 M⁻¹ s⁻¹. For the same compound, the koff [2, 13] was < 1e-07 s⁻¹, the Kd ([2]; Table 1 of the earlier manuscript version, quoted by Reviewer #2, superseded) was < 0.001 µM and the “Cell viability (MTT)” value ([3]; 72 h, 1 µM) was 96%. The “toxicity in Vero-E6” value ([3]; MTT 0.1-10 µM and annexin-V/PI 10 µM, 24, 48 or 72 h (Fig. 3c)) was “devoid of toxicity”, the Experimental helical content% [4] was 56% and the “cytotoxicity in uninfected Calu-3 cells” value [5] was “no cytotoxicity”. The “SARSCoV-2 virus titer at 1 μM (PFU mL^−1) on Calu-3” value [6] was 0 PFU mL^−1, the “efficacy in reducing SARS-CoV-2 viral titers” value ([6]; pulmonary cells, 1 µM) was 100% and the “% Inhibition of SARSCoV-2 replication at 10 μM” value (shortened to “% Inhibition … at 10 μM”) [7] was 95%. For the same compound, the “% Inhibition, Moyenne” value [7] was 95.1%, the “% Inhibition, Q2 (Median)” value [7] was 95.1% and the “RT, HPLC retention time” value [8] was 2,34 min. The “Cell death (AnnV+PI)” value ([9]; 24 h, EXP1, flow cytometry) was 4%, the “Cell death (AnnV+PI)” value ([9]; 24 h, EXP2, flow cytometry) was 5.38% and the “Cell death (AnnV+PI)” value ([9]; 24 h, EXP3, flow cytometry) was 5.49%. For the same compound, the “Cell death (AnnV+PI)” value ([9]; 48 h, EXP1, flow cytometry) was 7%, the “Cell death (AnnV+PI)” value ([9]; 48 h, EXP2, flow cytometry) was 5.69% and the “Cell death (AnnV+PI)” value ([9]; 48 h, EXP3, flow cytometry) was 6.33%. For the same compound, the “Cell death (AnnV+PI)” value ([9]; 72 h, EXP1, flow cytometry) was 4%, the “Cell death (AnnV+PI)” value ([9]; 72 h, EXP2, flow cytometry) was 2.55% and the “Cell death (AnnV+PI)” value ([9]; 72 h, EXP3, flow cytometry) was 3%. For the same compound, the “Cell death (AnnV+PI)” value ([10]; EXP1, peptide 10 µM, 24 h (0 µM: 16%)) was 23%, the “Cell death (AnnV+PI)” value ([10]; EXP1, peptide 10 µM, 48 h (0 µM: 18%)) was 19% and the “Cell death (AnnV+PI)” value ([10]; EXP1, peptide 10 µM, 72 h (0 µM: 23%)) was 23%. The “Cell death (AnnV+PI)” value ([10]; EXP2, peptide 10 µM, 24 h (0 µM: 13%)) was 17%, the “Cell death (AnnV+PI)” value ([10]; EXP2, peptide 10 µM, 48 h (0 µM: 17%)) was 20% and the “Cell death (AnnV+PI)” value ([10]; EXP2, peptide 10 µM, 72 h (0 µM: 20%)) was 22%. For the same compound, the “Cell death (AnnV+PI)” value ([10]; EXP3, peptide 10 µM, 24 h (Vehicle: 15%)) was 19%, the “Cell death (AnnV+PI)” value ([10]; EXP3, peptide 10 µM, 48 h (Vehicle: 18%)) was 19% and the “Cell death (AnnV+PI)” value ([10]; EXP3, peptide 10 µM, 72 h (Vehicle: 22%)) was 19%.

For “H-SALEEQLKTFLDKFLHELEDLLYQLALAL-NH2 [P6]”, the Experimental helical content% [4] was 80%, the “% Inhibition, Moyenne” value [7] was 6.5% and the “% Inhibition, Q2 (Median)” value [7] was 4.9%. For the same compound, the “RT, HPLC retention time” value [8] was 2,74 min.

For Ac-SALEEQLKTFLDKFLHELEDLLYQLAL-NH2 [P4], the Experimental helical content% [4] was 70%, the “% Inhibition … at 10 μM” value [7] was 24% and the “% Inhibition, Moyenne” value [7] was 24.0%. The “% Inhibition, Q2 (Median)” value [7] was 16.9% and the “RT, HPLC retention time” value [8] was 2,69 min.

In the case of H-SALEEQLKTFLDKFLHELEDLLYQLAL-NH2 [P3], the Experimental helical content% [4] is reported as 64%, the “% Inhibition … at 10 μM” value [7] is reported as 4% and the “% Inhibition, Moyenne” value [7] is reported as 3.9%. For the same compound, the “% Inhibition, Q2 (Median)” value [7] was 3.3% and the “RT, HPLC retention time” value [8] was 2,53 min.

With H-SALEEQLKTFLDKFLHELEDLLYQLSL-NH2 [P2] the Experimental helical content% [4] was 70%, the “% Inhibition … at 10 μM” value [7] was 16% and the “% Inhibition, Moyenne” value [7] was 16.0%. For the same compound, the “% Inhibition, Q2 (Median)” value [7] was 20.0% and the “RT, HPLC retention time” value [8] was 1.47 min.

In the case of H-SALEEQLKTFLDKFLHELEDPLYQLAL-NH2 [P5], the Experimental helical content% [4] is reported as 17%, the “% Inhibition … at 10 μM” value [7] is reported as 27% and the “% Inhibition, Moyenne” value [7] is reported as 26.6%. The “% Inhibition, Q2 (Median)” value [7] was 20.4% and the “RT, HPLC retention time” value [8] was 2,16 min.

In the case of “H-AHLFSYLTTKEEQDNDAIFLQEFSKES-NH2 [P1scr, reference compound]”, the Experimental helical content% [4] is reported as 8%, the “% Inhibition … at 10 μM” value [7] is reported as 7% and the “% Inhibition, Moyenne” value [7] is reported as 6.7%. For the same compound, the “% Inhibition, Q2 (Median)” value [7] was 6.4% and the “RT, HPLC retention time” value [8] was 1,54 min.
